Data taken from PubChem BioAssay (NCI).
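48-hour exposure; five concentrations; linearly interpolated endpoints. TGI: concentration producing complete growth inhibition.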

Experiments:
Test in all cases: NCI anticancer screen, dose series, 48 h
[1] = system: SNB-75 CNS
[2] = system: NCI/ADR-RES ovarian
[3] = system: T-47D breast
[4] = system: IGROV1 ovarian
[5] = system: NCI-H522 lung
[6] = system: HS 578T breast
[7] = system: DU-145 prostate
[8] = system: SN12C renal
[9] = system: UACC-62 melanoma
[10] = system: SK-MEL-5 melanoma
[11] = system: SF-539 CNS
[12] = system: TK-10 renal
[13] = system: RXF 393 renal
[14] = system: OVCAR-3 ovarian
[15] = system: HCT-116 colon
[16] = system: HL-60(TB) leukemia

Structure (SMILES)	TGI [1] [µM]	TGI [2] [µM]	TGI [3] [µM]	TGI [4] [µM]	TGI [5] [µM]	TGI [6] [µM]	TGI [7] [µM]	TGI [8] [µM]	TGI [9] [µM]	TGI [10] [µM]	TGI [11] [µM]	TGI [12] [µM]	TGI [13] [µM]	TGI [14] [µM]	TGI [15] [µM]	TGI [16] [µM]
CC(=O)ON(C(C)=O)c1ccc(-c2nc3ccccc3s2)cc1	> 89.9	39.9	> 66.5	36.9	30.7	> 88	> 77.1	> 100	48.7	89.9	29.4	> 100	> 79.3	66.7	> 54.7	–
COc1ccc(/C=C2\CCCC(CN(C)C)C2=O)cc1 (stereo not given)	21.6	6.56	7.72	7.51	2.85	10.9	30.2	7.12	4.13	28.8	31.1	9.45	–	4.99	3.19	4.62
C/C=C/[C@H]1O[C@@](O)([C@@H](C)[C@H](O)[C@H](C)[C@H]2OC(=O)/C(OC)=C/C(C)=C/[C@@H](C)[C@@H](O)[C@@H](CC)[C@@H](O)[C@H](C)C/C(C)=C/C=C/[C@@H]2OC)C[C@H](OC2CC(O)C(O)C(C)O2)[C@@H]1C (stereo not given in full)	46	17.8	0.336	17	1.48	17.3	15.1	18.1	10.3	0.0828	–	18.9	23.2	6.27	4.15	< 0.0075
CC(C)(C)OC(=O)NCCCCC(N)C(N)=O (stereo not given)	> 100	> 100	> 100	> 100	> 100	> 100	> 100	> 100	> 100	> 100	> 100	> 100	> 100	> 100	> 100	–
COc1cc2c[n+](C)c3c4cc(OC)c(OC)cc4c(OC)cc3c2cc1OC	> 95.1	> 100	12.2	–	2.03	12.6	> 65.3	–	> 100	14.9	> 100	> 100	> 100	> 34.6	> 43.6	–
CCOC(=O)c1ccc(Nc2cnc3cc(C(F)(F)F)ccc3n2)cc1	> 100	> 100	> 100	> 100	> 100	> 100	> 100	> 100	> 100	> 100	> 100	> 100	–	> 100	> 100	> 100
O=C(/C=C1\N=C(c2ccccc2)N(c2nc3ccc(Sc4ccccc4)cc3[nH]2)C1=O)/C=C/c1ccccc1	55.9	67.9	82.6	> 100	58.2	> 100	> 100	> 100	85.2	61.3	–	98.2	> 100	> 100	> 100	54.1
CS(=O)(=O)c1ccc(/C=N/NC(N)=S)cc1	> 100	> 100	> 100	> 100	> 100	> 100	> 100	> 100	> 100	> 100	–	> 100	> 100	> 100	> 100	> 100
COc1ccc(C2=CC(c3ccccc3)n3nnnc3N2)cc1 (stereo not given)	–	> 100	> 100	> 100	> 100	> 100	> 100	> 100	> 100	> 100	> 100	–	> 100	> 100	> 100	> 100
Cc1cc(N(CCC#N)CCC#N)ccc1/C(N=Nc1ccc(Cl)cc1)=N\NC(=O)c1cc(Cl)ccc1O	84.4	> 100	> 100	> 100	37	56.2	> 100	> 100	> 100	> 100	73.6	> 100	74.5	66.2	> 100	–
CN(C)C(Cc1cnc[nH]1)C(=O)N1CCCC1C(N)=O (stereo not given)	> 100	> 100	> 100	> 100	> 100	> 100	> 100	> 100	> 100	> 100	–	> 100	> 100	> 100	> 100	> 100
COc1ccc(/C=C2\CCC(C)C3=C(c4ccc(OC)c(OC)c4)C(C#N)=C(N)OC32)cc1OC (stereo not given)	8.63	39.4	7.97	9.45	–	> 100	> 100	28.2	7.34	4.66	–	> 100	3.99	48.3	20.2	7.75
O=C(OCc1ccccc1CN1CCOCC1)c1cccc(Br)c1	> 100	79.8	49.6	> 100	53.4	> 100	> 100	> 100	> 100	33.3	> 100	–	> 100	44.3	> 100	–
